The text below walks through data of US8703713B2, “Combination therapy for pancreatic cancer using an antigenic peptide and chemotherapeutic agent” (Onco Therapy Science, Inc., priority 2007, dated 2014).

The subject of data set [1] is unresectable pancreatic cancer. The note with it: cited from earlier work.
Data set [2] in a line: Preliminary test administration of the peptide. The data set is classed as in vivo, human. The note with it: 10 mg of the peptide subcutaneously before first vaccine administration, monitoring 30 minutes, all cases. On the procedure:
For the purpose of avoiding unanticipated adverse events, such as anaphylactic shock, 10 mg of the peptide is subcutaneously administered as a preliminary test administration before the first vaccine administration to a site other than the site of the actual administration, and monitoring is carried out for 30 minutes. If a Grade 3 or higher local reaction or systemic adverse event could not be observed, the actual administration was carried out.

[3] abbreviates: standard therapy against unresectable pancreatic cancer.

Counter-ions that a name gives are not always drawn. Peptide text beside a SMILES is read from it.

Consider `Nc1ccn([C@@H]2O[C@H](CO)[C@@H](O)C2(F)F)c(=O)n1` [gemcitabine, 2′-deoxy-2′,2′-difluorocytidine monohydrochloride (b-isomer)], for which the “Evident tumor reducing effect (Objective Response)” value in data set [1] (gemcitabine alone, data obtained so far) is listed as 10%. In addition, the “Disease control rate (SD or higher)” value in data set [1] (gemcitabine alone, data obtained so far, listed as GEM alone) is listed as 45-48%. Also, in data set [1] (setting [3]), the median survival period is recorded as 5.7 months and the one-year survival rate is given as 18%.

With `CC[C@H](C)[C@H](NC(=O)[C@H](CCCNC(=N)N)NC(=O)[C@H](CC(N)=O)NC(=O)CNC(=O)[C@H](CC(=O)O)NC(=O)[C@@H]1CCCN1C(=O)[C@@H](NC(=O)[C@H](Cc1ccccc1)NC(=O)[C@@H](N)CCCNC(=N)N)C(C)C)C(=O)O` [VEGFR2-169, RFVPDGNRI] (H-RFVPDGNRI-OH), the “local adverse event and systemic adverse event” value in data set [2] was “not observed in any of the cases”.
